# Experiments:
# Experiment in all cases: relative viability (nuclei count vs DMSO), 5 days (fraction); higher = more cells survive
# [1] = compound: CC1=C(C(=NN1)C)CC2=C(C3=C(S2)N(C(=O)N(C3=O)C)CC(C)C)C(=O)N4C[C@@H](CO4)O + COc1cc2c(Oc3ccc(NC(=O)C4(C(=O)Nc5ccc(F)cc5)CC4)cc3F)ccnc2cc1OCCCN1CCOCC1 [Foretinib] (partner 0.25 µM)
# In short: (§1)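 Each reported value is a median over duplicate plates. It expresses relative viability: treated-well nuclei count divided by vehicle-well nuclei count. Lung cancer cell lines in 1536-well plates were dosed by pin tool a day after seeding, alone with one drug or with a fixed anchor-drug dose plus five library-drug doses (not always all listed) in √10 steps, and nuclei were counted after 5 days.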
# [2] = compound: CC1=C(C(=NN1)C)CC2=C(C3=C(S2)N(C(=O)N(C3=O)C)CC(C)C)C(=O)N4C[C@@H](CO4)O + O=C(CCCCCCC(=O)Nc1ccccc1)NO [Vorinostat] (partner 1 µM)
# In short: as §1
# IDH-C35 + Trametinib = compound: Cc1ccccc1C(C(=O)NC1CCCCC1)N(C(=O)Cn1ccnc1C)c1cccc(F)c1 [IDH-C35] + CC(=O)Nc1cccc(-n2c(=O)n(C3CC3)c(=O)c3c(Nc4ccc(I)cc4F)n(C)c(=O)c(C)c32)c1 [Trametinib] (partner 0.02 µM)
# In short: as §1
# IDH-C35 + Navitoclax = compound: Cc1ccccc1C(C(=O)NC1CCCCC1)N(C(=O)Cn1ccnc1C)c1cccc(F)c1 [IDH-C35] + CC1(C)CCC(c2ccc(Cl)cc2)=C(CN2CCN(c3ccc(C(=O)NS(=O)(=O)c4ccc(N[C@H](CCN5CCOCC5)CSc5ccccc5)c(S(=O)(=O)C(F)(F)F)c4)cc3)CC2)C1 [Navitoclax] (partner 0.5 µM)
# In short: as §1
Cell Line,relative viability ([1]; first compound 0.0025 µM),relative viability ([1]; first compound 0.007906 µM),relative viability ([1]; first compound 0.025 µM),relative viability ([1]; first compound 0.07906 µM),relative viability ([1]; first compound 0.25 µM),relative viability ([2]; first compound 0.0025 µM),relative viability ([2]; first compound 0.007906 µM),relative viability ([2]; first compound 0.025 µM),relative viability ([2]; first compound 0.07906 µM),relative viability ([2]; first compound 0.25 µM),relative viability (IDH-C35 + Trametinib; first compound 0.08 µM),relative viability (IDH-C35 + Trametinib; first compound 0.253 µM),relative viability (IDH-C35 + Trametinib; first compound 0.8 µM),relative viability (IDH-C35 + Trametinib; first compound 2.53 µM),relative viability (IDH-C35 + Trametinib; first compound 8 µM),relative viability (IDH-C35 + Navitoclax; first compound 0.08 µM),relative viability (IDH-C35 + Navitoclax; first compound 0.253 µM),relative viability (IDH-C35 + Navitoclax; first compound 0.8 µM),relative viability (IDH-C35 + Navitoclax; first compound 2.53 µM),relative viability (IDH-C35 + Navitoclax; first compound 8 µM)
HOP-62,1.2,1.09,1.04,1.06,1.09,0.575,0.895,0.496,0.631,0.65,0.395,0.353,0.424,0.33,0.384,1.07,0.939,0.84,0.974,0.891
LC-2-ad,0.897,0.836,0.911,1.06,1.08,0.696,0.658,0.718,0.705,0.729,0.87,0.923,0.954,0.874,0.905,0.544,0.589,0.467,0.427,0.331
LCLC-97TM1,0.97,1.01,0.935,0.775,0.934,0.984,1.03,0.575,0.72,0.776,0.183,0.2,0.21,–,0.243,0.4,0.474,0.367,–,0.35
LK-2,1.04,1.12,0.981,0.928,1.16,0.342,0.272,0.208,0.266,0.301,0.719,0.762,0.735,0.779,0.745,0.88,0.834,0.866,0.911,0.903
LOU-NH91,0.931,0.877,0.988,1.02,0.972,1.03,0.875,0.939,1.07,1,0.804,0.785,0.781,0.742,0.803,0.69,0.78,0.722,0.635,0.735
LU99A,0.901,0.943,0.766,0.768,0.747,0.462,0.526,0.505,0.46,0.575,0.527,0.643,0.56,0.527,0.524,0.702,0.814,0.871,0.925,0.781
LXF-289,0.963,0.926,1.02,0.994,1.03,0.881,0.748,0.829,0.671,0.762,0.701,0.628,0.643,0.676,0.668,0.968,0.931,0.961,0.896,0.987
NCI-H23,1.05,0.992,0.965,1.07,1.16,0.76,0.627,0.638,0.587,0.737,0.347,0.456,0.282,0.392,0.325,0.792,0.828,0.883,0.992,0.807
NCI-H322M,1.07,0.969,1.04,0.977,0.98,0.876,0.821,0.857,0.953,0.801,0.451,0.485,0.55,0.488,0.507,1.34,1.12,1.23,1.15,1.2
NCI-H441,1.43,1.2,0.826,0.937,0.968,0.959,0.774,0.716,0.696,1.12,0.435,0.415,0.5,0.542,0.484,0.694,–,0.568,0.582,0.675
NCI-H460,1.01,1.09,0.949,1.01,1.11,0.859,0.689,0.634,0.723,0.857,0.165,0.133,0.176,0.165,0.0866,1.26,1.19,1.06,1.07,1.21
NCI-H520,0.894,0.73,0.701,0.564,0.692,0.678,0.777,0.594,0.577,0.684,0.645,0.669,0.818,0.665,0.721,1.02,1.15,1.07,0.933,1.21
NCI-H596,1.08,1.12,0.691,0.702,0.99,0.783,0.652,0.625,0.697,0.479,0.892,0.722,0.808,0.746,0.737,1.1,1,0.925,0.867,0.962
NCI-H647,1.23,1.27,1.13,1.19,1.2,0.564,0.744,0.473,0.617,0.606,0.488,0.378,0.444,0.473,0.47,1.26,1.18,0.916,1.04,1.12
NCI-H727,1.15,1.13,0.882,0.876,0.897,1.16,1.25,1.05,1.05,1.13,0.376,0.357,0.34,0.393,0.372,0.377,0.429,0.371,0.399,0.35
NCI-H838,1.06,1.04,0.983,0.974,0.99,0.696,0.75,0.691,0.777,0.704,0.579,0.505,0.508,0.507,0.503,1.15,1.11,1.19,1.15,1.11

Cell Line,relative viability ([1]; first compound 0.0025 µM),relative viability ([1]; first compound 0.007906 µM),relative viability ([1]; first compound 0.025 µM),relative viability ([1]; first compound 0.07906 µM),relative viability ([1]; first compound 0.25 µM),relative viability ([2]; first compound 0.0025 µM),relative viability ([2]; first compound 0.007906 µM),relative viability ([2]; first compound 0.025 µM),relative viability ([2]; first compound 0.07906 µM),relative viability ([2]; first compound 0.25 µM),relative viability (IDH-C35 + Trametinib; first compound 0.08 µM),relative viability (IDH-C35 + Trametinib; first compound 0.253 µM),relative viability (IDH-C35 + Trametinib; first compound 0.8 µM),relative viability (IDH-C35 + Trametinib; first compound 2.53 µM),relative viability (IDH-C35 + Trametinib; first compound 8 µM),relative viability (IDH-C35 + Navitoclax; first compound 0.08 µM),relative viability (IDH-C35 + Navitoclax; first compound 0.253 µM),relative viability (IDH-C35 + Navitoclax; first compound 0.8 µM),relative viability (IDH-C35 + Navitoclax; first compound 2.53 µM),relative viability (IDH-C35 + Navitoclax; first compound 8 µM)
NCI-H1355,1.04,1.11,1,1.02,1.12,0.72,0.632,0.66,0.55,0.662,0.453,0.424,0.398,0.392,0.423,0.952,0.928,0.934,0.938,0.996
NCI-H1395,1.11,1.04,0.804,0.812,0.824,0.75,0.663,0.508,0.756,0.683,1.12,1.05,1.05,0.903,0.919,1.14,1.05,1.49,1.08,1.16
NCI-H1437,1.26,1.29,1.18,1.3,1.24,0.796,0.882,0.833,0.868,0.906,0.514,0.522,0.534,0.51,0.489,1.08,1.07,1.08,1.19,0.975
NCI-H1650,1.18,1.26,1.52,1.18,1.05,0.529,0.583,0.49,0.713,0.568,0.548,0.599,0.614,0.644,0.504,1.23,1.21,1.19,1.24,1.17
NCI-H1651,0.708,0.832,0.735,0.821,0.815,0.504,0.601,0.505,0.545,0.581,0.856,0.899,0.838,0.858,0.832,1.03,1.01,0.972,1.03,1.01
NCI-H1666,0.93,0.995,0.897,0.94,1.03,1.08,1.12,1.03,1.04,1.05,0.813,0.854,0.902,0.799,0.876,1.03,0.977,0.961,1.07,0.881
NCI-H1734,0.811,0.976,0.896,0.9,0.916,0.88,0.868,0.768,0.745,0.76,0.656,0.811,0.603,0.661,0.616,0.9,0.849,0.827,0.796,0.791
NCI-H1755,0.97,0.996,0.873,0.911,0.897,0.792,0.781,0.724,0.632,0.719,0.754,0.735,0.762,0.73,0.675,0.981,1.01,0.973,0.976,0.96
NCI-H1793,0.67,0.784,0.732,0.665,0.605,0.72,0.959,0.757,0.733,0.747,0.42,0.45,0.374,0.472,0.401,0.549,0.446,0.444,0.456,0.608
NCI-H1915,1.18,1.12,1.05,1.01,1.11,0.573,0.541,0.488,0.51,0.588,0.316,0.315,0.275,0.278,0.276,0.772,0.753,0.759,0.729,0.767
NCI-H1944,0.985,1.02,0.898,1.02,0.889,0.6,0.704,0.576,0.522,0.594,0.392,0.421,0.42,0.332,0.393,1.02,1.04,0.942,1.05,1.04
NCI-H1975,0.946,1.06,1,0.949,0.984,0.754,0.743,0.729,0.747,0.786,0.384,0.363,0.323,0.345,0.32,1.12,1.34,1.03,1.09,1.01
NCI-H1993,0.767,0.719,0.827,0.711,0.749,1.03,0.664,0.685,0.623,0.711,0.479,0.586,0.632,0.542,0.645,0.943,0.878,0.919,1.1,1.13
NCI-H2009,1.16,1.27,1.17,1.35,1.15,0.703,0.785,0.735,0.756,0.701,0.29,0.308,0.314,0.34,0.288,1.22,1.16,1.12,1.17,1.16
NCI-H2023,0.871,0.809,0.959,0.898,1.03,0.621,0.797,0.645,0.545,0.636,0.476,0.503,0.548,0.528,0.475,1.09,1.01,0.979,0.962,1.1

# Source: the supplement of paper PMC10307832
